From PMC11770821, “Pharmacokinetics and pharmacodynamics of an innovative psychedelic N,N-dimethyltryptamine/harmine formulation in healthy participants: a randomized controlled trial” (International Journal of Neuropsychopharmacology, 2025)

Legend:
healthy male volunteers [1] = settings: in vivo
Protocol: (§1) The participants were monitored with regard to AEs throughout the experiment by the study physician, including questionnaire-based assessments (VAS, 0-100 or y/n) of physical and mental discomfort, breathing difficulties, racing heartbeat, chest or abdominal pains, unpleasant body sensations/muscle pain, headache, nausea, vomiting, and fainting at baseline (−105), 0, 30, 60, 120, 240, and 300 minutes after DMT/placebo administration. Vital signs (systolic/diastolic blood pressure [DBP], heart rate, body temperature [BT]) were assessed using a semiautomatic blood pressure and oral temperature recording device throughout the study at baseline (−45), 0, 30, 120, 150, 210, and 270 minutes after the first DMT/placebo administration.

healthy male volunteers [2] = experiment: Undesired drug effects / adverse events questionnaire (y/n and VAS 0–100); format: in vivo, human
Protocol: as §1

[3] = 0 min after first intranasal DMT/placebo administration
[4] = 60 min after first intranasal DMT/placebo administration
[5] = 120 min after first intranasal DMT/placebo administration
[6] = 180 min after first intranasal DMT/placebo administration

## COc1ccc2c(c1)[nH]c1c(C)nccc12 [Harmine, harmine]
Healthy male volunteers [1]
  change of cardiovascular parameters: no relevant changes
Healthy male volunteers [2]; [3]
  Breathing difficulty, mean intensity [0–100] (SD): 18 (25)
  Breathing difficulty, number of participants reporting: 3
  Chest pain, mean intensity [0–100] (SD): 24 (32)
  Chest pain, number of participants reporting: 2
  Fainting, mean intensity [0–100] (SD): 0 (0)
  Fainting, number of participants reporting: 0
  Head ache, mean intensity [0–100] (SD): 3 (0)
  Head ache, number of participants reporting: 1
  Heart racing, mean intensity [0–100] (SD): 28 (35)
  Heart racing, number of participants reporting: 2
  Muscle ache, mean intensity [0–100] (SD): 9 (7)
  Muscle ache, number of participants reporting: 6
  Nausea, mean intensity [0–100] (SD): 2 (0)
  Nausea, number of participants reporting: 1
  Psychological distress, mean intensity [0–100] (SD): 6 (2)
  Psychological distress, number of participants reporting: 3
  Somatic distress, mean intensity [0–100] (SD): 18 (14)
  Somatic distress, number of participants reporting: 5
  Stomach ache, mean intensity [0–100] (SD): 2 (0)
  Stomach ache, number of participants reporting: 1
  Vomiting, mean intensity [0–100] (SD): 0 (0)
  Vomiting, number of participants reporting: 0
Healthy male volunteers [2]; [4]
  Breathing difficulty, mean intensity [0–100] (SD): 21 (28)
  Breathing difficulty, number of participants reporting: 2
  Chest pain, mean intensity [0–100] (SD): 13 (8)
  Chest pain, number of participants reporting: 2
  Fainting, mean intensity [0–100] (SD): 0 (0)
  Fainting, number of participants reporting: 0
  Head ache, mean intensity [0–100] (SD): 34 (47)
  Head ache, number of participants reporting: 2
  Heart racing, mean intensity [0–100] (SD): 9 (0)
  Heart racing, number of participants reporting: 1
  Muscle ache, mean intensity [0–100] (SD): 22 (0)
  Muscle ache, number of participants reporting: 2
  Nausea, mean intensity [0–100] (SD): 11 (10)
  Nausea, number of participants reporting: 3
  Psychological distress, mean intensity [0–100] (SD): 8 (8)
  Psychological distress, number of participants reporting: 2
  Somatic distress, mean intensity [0–100] (SD): 9 (5)
  Somatic distress, number of participants reporting: 5
  Stomach ache, mean intensity [0–100] (SD): 52 (0)
  Stomach ache, number of participants reporting: 1
  Vomiting, mean intensity [0–100] (SD): 0 (0)
  Vomiting, number of participants reporting: 0
Healthy male volunteers [2]; [5]
  Breathing difficulty, mean intensity [0–100] (SD): 7 (8)
  Breathing difficulty, number of participants reporting: 3
  Chest pain, mean intensity [0–100] (SD): 4 (3)
  Chest pain, number of participants reporting: 3
  Fainting, mean intensity [0–100] (SD): 0 (0)
  Fainting, number of participants reporting: 0
  Head ache, mean intensity [0–100] (SD): 11 (0)
  Head ache, number of participants reporting: 1
  Heart racing, mean intensity [0–100] (SD): 5 (5)
  Heart racing, number of participants reporting: 3
  Muscle ache, mean intensity [0–100] (SD): 10 (9)
  Muscle ache, number of participants reporting: 3
  Nausea, mean intensity [0–100] (SD): 15 (0)
  Nausea, number of participants reporting: 1
  Psychological distress, mean intensity [0–100] (SD): 4 (5)
  Psychological distress, number of participants reporting: 2
  Somatic distress, mean intensity [0–100] (SD): 7 (5)
  Somatic distress, number of participants reporting: 7
  Stomach ache, mean intensity [0–100] (SD): 30 (37)
  Stomach ache, number of participants reporting: 2
  Vomiting, mean intensity [0–100] (SD): 0 (0)
  Vomiting, number of participants reporting: 0
Healthy male volunteers [2]; [6]
  Breathing difficulty, mean intensity [0–100] (SD): 0 (0)
  Breathing difficulty, number of participants reporting: 0
  Chest pain, mean intensity [0–100] (SD): 0 (0)
  Chest pain, number of participants reporting: 0
  Fainting, mean intensity [0–100] (SD): 0 (0)
  Fainting, number of participants reporting: 0
  Head ache, mean intensity [0–100] (SD): 72 (0)
  Head ache, number of participants reporting: 1
  Heart racing, mean intensity [0–100] (SD): 1 (0)
  Heart racing, number of participants reporting: 1
  Muscle ache, mean intensity [0–100] (SD): 16 (14)
  Muscle ache, number of participants reporting: 4
  Nausea, mean intensity [0–100] (SD): 1 (0)
  Nausea, number of participants reporting: 1
  Psychological distress, mean intensity [0–100] (SD): 9 (0)
